{"source": "paper PMC10564737", "about": "“Structure-based design of a phosphotyrosine-masked covalent ligand targeting the E3 ligase SOCS2” (Nature Communications, 2023)", "biological_target": "T1, SBC2 (Homo sapiens, UniProt O14508)", "T1 construct": "SOCS2 (amino acids 32–198); His6 (N, cleaved yes); made in house; host or cells: E. coli BL21(DE3)", "T1 sequence (O14508 32-198)": "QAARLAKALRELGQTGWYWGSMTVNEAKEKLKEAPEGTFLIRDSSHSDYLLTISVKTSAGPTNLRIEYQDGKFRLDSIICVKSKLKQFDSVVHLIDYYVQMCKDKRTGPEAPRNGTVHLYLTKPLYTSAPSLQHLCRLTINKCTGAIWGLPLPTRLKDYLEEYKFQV", "T1 sequence (Q15370 1-104 partner limits assumed)": "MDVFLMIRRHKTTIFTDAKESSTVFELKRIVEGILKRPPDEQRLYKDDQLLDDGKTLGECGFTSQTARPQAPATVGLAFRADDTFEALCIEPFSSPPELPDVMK", "T1 sequence (Q15369 17-112 partner limits assumed)": "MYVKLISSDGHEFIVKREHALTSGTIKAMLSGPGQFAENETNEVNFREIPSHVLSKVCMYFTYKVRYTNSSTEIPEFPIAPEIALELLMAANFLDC", "experiment": "Covalent fluorescence polarization (FP) probe displacement assay", "format": "binding", "set-up": "Michaelis-Menten best-fit value Vmax / Michaelis-Menten best-fit Vmax: unit not given here", "conditions": "for Anisotropy: Cycle 12 (55 min)", "source_text": "With the specific covalent modification of Cys111 established, we decided to fully characterize MN551 as a covalent SOCS2 inhibitor. […] (Fig. 2g, h, Supplementary Fig. 9). Due to the covalent nature of the competing inhibitor, a time-dependent reduction in the fraction of protein-bound probe is observed. […] This value illustrates reasonable specificity for a covalent inhibitor, with nonetheless scope for future optimization. In addition to characterizing the kinetic covalency parameters, we have also assessed the stability of the MN551 by monitoring its reactivity (half-life >70 min) with reduced glutathione (GSH) (Supplementary Fig. 10)[35].\nTo monitor the SBC2-ligand binding kinetics we designed a fluorescein-labeled small-molecule probe - compound 26. The fluorescence polarization (anisotropy) of a threefold serial dilution of 50 µM SBC2 in 10 nM of the probe in 100 mM HEPES pH 7.5, 50 mM NaCl, 0.5 mM TCEP, 2% DMSO was measured to determine the KL (Supplementary Fig. 9A) (BMG Labtech PHERAstar – firmware v1.33). Protein titration and the curves were fitted using GraphPad Prism 9, using one-site fitting models to determine the probe binding constant, KL. Samples were run in triplicate in 384 well plates, using a total volume per well of 16 μL. The bound fraction of the probe is measure using the equation:1 Fb=Af−A/Af−Ab Where,\nA time-dependent reduction in probe anisotropy were measured for a 2-fold serial dilution of […] compound MN551 in 10 nM probe +300 μM SBC2. To determine the initial reversible binding affinity, the initial bound fraction of the probe at time = 0, Fbo (the y-intercept in Fb v/s Time plot, Supplementary Fig. 9B) was plotted against MN551 concentration, and the obtained IC50 is then converted to Ki (Supplementary Fig. 9C)[17]. The slope from Fb versus time graph when divided by Fbo gives rate of covalency, kobs. A plot of kobs v/s MN551 concentration using Michaelis–Menten model of GraphPad Prism 9, provides the parameters kinact (maximum potential rate of inactivation) and KI (concentration of MN551 at which kobs = kinact/2) (Supplementary Fig. 9D, E).\nThe observed first-order rate constant, kobs is related to KI and kinact by the equation:2 kobs=kinactI/KI+I\nAt [I]«[KI] the above equation is converted to3 […]\nThe slope from the plot of kobs against concentration of MN551 gives us the covalent efficiency parameter kinact/KI (Supp Fig. 9F)[30],[33].", "key": {"[1]": {"conditions": "MN551 1562.5 nM, Cycle 6 (25 min)"}, "[2]": {"conditions": "MN551 3125 nM, Cycle 6 (25 min)"}, "[3]": {"conditions": "MN551 6250 nM, Cycle 6 (25 min)"}, "[4]": {"conditions": "MN551 12500 nM, Cycle 6 (25 min)"}, "[5]": {"conditions": "MN551 25000 nM, Cycle 6 (25 min)"}, "[6]": {"conditions": "MN551 50000 nM, Cycle 6 (25 min)"}, "[7]": {"conditions": "linear fit through origin, 14 X values"}}, "note": "Where “and” joins values, the source holds several entries; their conditions need not be identical. Equal entries are not always repeated. Where two headings read alike, the source gives them in different places."}
{"smiles": "O=C(CCl)Nc1cccc(CNC(=O)[C@H](Cc2ccc(OP(=O)(O)O)cc2)NC(=O)Cc2ccc(F)cc2)c1", "note": "[MN551]", "values": [{"measurement": "Anisotropy based on Raw Data (485)", "setting": "MN551 1562.5 nM, Cycle 7 (30 min)", "value": "249.9 and 251.8 and 246.3"}, {"measurement": "Fb, fraction bound", "setting": "MN551 1562.5 nM, Cycle 2 (5 min)", "value": "0.7824 and 0.8178 and 0.7856"}, {"measurement": "Fb, fraction bound", "setting": "MN551 1562.5 nM, Cycle 3 (10 min)", "value": "0.7647 and 0.786 and 0.7702"}, {"measurement": "Anisotropy data 485,520,520", "setting": "[1]", "value": "247 and 253 and 251"}, {"measurement": "Fb", "setting": "[1]", "value": "0.6849 and 0.7296 and 0.7125"}, {"measurement": "Anisotropy", "setting": "MN551 1562.5 nM", "value": "232.7 and 235.9 and 233.9"}, {"measurement": "Anisotropy based on Raw Data (485)", "setting": "MN551 3125 nM, Cycle 7 (30 min)", "value": "236.7 and 234.8 and 231.2"}, {"measurement": "Fb, fraction bound", "setting": "MN551 3125 nM, Cycle 3 (10 min)", "value": "0.6544 and 0.6694 and 0.6412"}, {"measurement": "Anisotropy data 485,520,520", "setting": "[2]", "value": "232.2 and 235.2 and 237.3"}, {"measurement": "Fb", "setting": "[2]", "value": "0.5431 and 0.5648 and 0.5878"}, {"measurement": "Anisotropy", "setting": "MN551 3125 nM", "value": "219.6 and 215.4 and 213.4"}, {"measurement": "Anisotropy based on Raw Data (485)", "setting": "MN551 6250 nM, Cycle 7 (30 min)", "value": "210.9 and 211.2 and 208.6"}, {"measurement": "Fb, fraction bound", "setting": "MN551 6250 nM, Cycle 3 (10 min)", "value": "0.4366 and 0.4454 and 0.4414"}, {"measurement": "Anisotropy data 485,520,520", "setting": "[3]", "value": "214.2 and 214.4 and 216.1"}, {"measurement": "Fb", "setting": "[3]", "value": "0.3707 and 0.3722 and 0.3949"}, {"measurement": "Anisotropy", "setting": "MN551 6250 nM", "value": "197.5 and 192.2 and 194.7"}, {"measurement": "Anisotropy data 485,520,520", "setting": "MN551 6250 nM, Cycle 19 (90 min), n=1", "value": "182.4 and 180.6 and 182.5"}, {"measurement": "Anisotropy based on Raw Data (485)", "setting": "MN551 12500 nM, Cycle 7 (30 min)", "value": "198.9 and 196.3 and 194.4"}, {"measurement": "Fb, fraction bound", "setting": "MN551 12500 nM, Cycle 3 (10 min)", "value": "0.2711 and 0.337 and 0.3633"}, {"measurement": "Anisotropy data 485,520,520", "setting": "[4]", "value": "197.3 and 198 and 197.2"}, {"measurement": "Fb", "setting": "[4]", "value": "0.2088 and 0.2204 and 0.2229"}, {"measurement": "Anisotropy", "setting": "MN551 12500 nM", "value": "181.6 and 186.4 and 190.6"}, {"measurement": "Anisotropy data 485,520,520", "setting": "MN551 12500 nM, Cycle 19 (90 min), n=1", "value": "175.8 and 177.4 and 179.3"}, {"measurement": "Anisotropy based on Raw Data (485)", "setting": "MN551 25000 nM, Cycle 7 (30 min)", "value": "184.9 and 182.9 and 181.5"}, {"measurement": "Anisotropy based on Raw Data (485)", "setting": "MN551 25000 nM, Cycle 8 (35 min)", "value": "180.7 and 181.6"}, {"measurement": "Fb, fraction bound", "setting": "MN551 25000 nM, Cycle 3 (10 min)", "value": "0.1627 and 0.184 and 0.1553"}, {"measurement": "Anisotropy data 485,520,520", "setting": "[5]", "value": "189.8 and 187 and 188.6"}, {"measurement": "Fb", "setting": "[5]", "value": "0.137 and 0.1185 and 0.1447"}, {"measurement": "Anisotropy", "setting": "MN551 25000 nM", "value": "177.2 and 177.1 and 175"}, {"measurement": "Anisotropy data 485,520,520", "setting": "MN551 25000 nM, Cycle 19 (90 min), n=1", "value": "168.3 and 171.4 and 169.1"}, {"measurement": "Anisotropy based on Raw Data (485)", "setting": "MN551 50000 nM, Cycle 7 (30 min)", "value": "181.6 and 178.4 and 180.2"}, {"measurement": "Anisotropy based on Raw Data (485)", "setting": "MN551 50000 nM, Cycle 8 (35 min)", "value": "179.2 and 176.8 and 178.5"}, {"measurement": "Fb, fraction bound", "setting": "MN551 50000 nM, Cycle 3 (10 min)", "value": "0.08456 and 0.09836 and 0.08356"}, {"measurement": "Anisotropy data 485,520,520", "setting": "[6]", "value": "185.8 and 181.1 and 183.7"}, {"measurement": "Fb", "setting": "[6]", "value": "0.09866 and 0.06389 and 0.1001"}, {"measurement": "Anisotropy", "setting": "MN551 50000 nM", "value": "173.6 and 173.5 and 174.7"}, {"measurement": "Anisotropy data 485,520,520", "setting": "MN551 50000 nM, Cycle 19 (90 min), n=1", "value": "167.6 and 168.6 and 168.7"}, {"measurement": "Anisotropy based on Raw Data (485)", "setting": "MN551 100000 nM, Cycle 7 (30 min)", "value": "179.4 and 180.3 and 179.5"}, {"measurement": "Anisotropy based on Raw Data (485)", "setting": "MN551 100000 nM, Cycle 8 (35 min)", "value": "176.4 and 175.9"}, {"measurement": "Fb, fraction bound", "setting": "MN551 100000 nM, Cycle 3 (10 min)", "value": "0.06066 and 0.07013 and 0.06449"}, {"measurement": "Anisotropy data 485,520,520", "setting": "MN551 100000 nM, Cycle 6 (25 min)", "value": "179.9 and 183.4"}, {"measurement": "Anisotropy", "setting": "MN551 100000 nM", "value": "176.4 and 173.8 and 174.3"}, {"measurement": "Anisotropy data 485,520,520", "setting": "MN551 100000 nM, Cycle 19 (90 min), n=1", "value": "171.6 and 169.1"}, {"measurement": "Ki", "setting": "Mean, n = 3, time = 0, read-out: Ki", "value": 1110, "unit": "nM"}, {"measurement": "Ki", "setting": "calculated from IC50 at time = 0, read-out: Ki at time = 0 (initial reversible binding affinity)", "value": 1100, "unit": "nM"}, {"measurement": "Michaelis-Menten best-fit value Vmax", "setting": "experiment n=1, 95% CI 0.01343 to 0.01564", "value": 0.0145}, {"measurement": "Linear fit best-fit value Slope", "setting": "experiment n=1, Y = 3.349e-006*X + 0.000, 95% CI 3.026e-006 to 3.671e-006", "value": "3.349e-6"}, {"measurement": "Slope of linear regression (Equation Y = slope*X + 0.000), covalent efficiency", "setting": "[7]", "value": "Y = 3.866e-006*X + 0.000"}, {"measurement": "Slope, 95% Confidence Intervals", "setting": "[7]", "value": "3.764e-006 to 3.969e-006"}, {"measurement": "kinact (maximum potential rate of inactivation)", "setting": "mean ± SEM, n = 3", "value": "2.1 × 10^–4 s^-1"}, {"measurement": "kinact", "setting": "mean ± SEM, n = 3, read-out: kinact (maximum potential rate of inactivation)", "value": 0.0125, "unit": "min⁻¹"}, {"measurement": "kinact/KI (covalent efficiency)", "setting": "mean, n = 3", "value": 57.53, "unit": "M⁻¹ s⁻¹"}, {"measurement": "Ki", "setting": "mean, n = 3, read-out: Ki", "value": 3560.67, "unit": "nM"}, {"measurement": "kinact", "setting": "mean, n = 3, read-out: Kinact (converted)", "value": 0.0153, "unit": "min⁻¹"}, {"measurement": "kinact/KI", "setting": "mean, n = 3, read-out: kinact/KI (covalent efficiency)", "value": 3480, "unit": "M⁻¹ min⁻¹"}, {"measurement": "Michaelis-Menten Vmax, 95% CI (profile likelihood)", "setting": "n=2 experiment", "value": "0.01305 to 0.01515"}, {"measurement": "Michaelis-Menten best-fit value Vmax", "setting": "n=2 experiment, R squared 0.9902", "value": 0.01406}, {"measurement": "kinact", "setting": "n=2 experiment, from Michaelis-Menten fit (Vmax), read-out: Kinact (min-1) (converted)", "value": 0.0141, "unit": "min⁻¹"}, {"measurement": "kinact", "setting": "n=2 experiment, from Michaelis-Menten fit (Vmax), read-out: Kinact (s-1)", "value": 0.014, "unit": "min⁻¹"}, {"measurement": "kinact/KI", "setting": "read-out: Slope: Kinact/Ki (M-1min-1), FP competition assay to evaluate MN551 covalent efficiency, replicate n=3, Michaelis-Menten fit", "value": 3690, "unit": "M⁻¹ min⁻¹"}, {"measurement": "Michaelis-Menten best-fit Vmax", "setting": "replicate n=3, 95% CI 0.01570 to 0.01942", "value": 0.01742}, {"measurement": "Linear fit 1/slope", "setting": "replicate n=3, Y-intercept 0", "value": 258642}, {"measurement": "Linear fit best-fit Slope", "setting": "replicate n=3, Y-intercept 0, MN551 below Ki titration", "value": "3.866e-6"}, {"measurement": "Kinact, individual replicates n1-n3", "setting": "single replicates", "value": 0.014, "unit": "min⁻¹"}, {"measurement": "Kinact/KI, individual replicates n1-n3", "setting": "single replicates", "value": 52.40, "unit": "M⁻¹ s⁻¹"}, {"measurement": "kinact", "setting": "single replicates, read-out: Kinact, individual replicates n1-n3 (converted)", "value": 0.0174, "unit": "min⁻¹"}, {"measurement": "kinact/KI", "setting": "single replicates, read-out: Kinact/KI, individual replicates n1-n3", "value": 3860, "unit": "M⁻¹ min⁻¹"}]}
